# In patent US8952024B2, “Herbicidal pyrimidone derivatives” (E I du Pont de Nemours and Company, priority 2009, dated 2015):
# Legend:
# Format in all cases: in vivo
# [1] = system: ducksalad (Heteranthera limosa); experiment: Test B flooded paddy test; settings: for Plant response rating, Flood, Ducksalad: 250 g ai/ha, flooded paddy test, visual rating on 0 to 100 scale (0 no effect, 100 complete control) after 13 to 15 days; for Plant response rating, Ducksalad: Flood (flooded paddy test), 13 to 15 days; for Ducksalad plant response rating: Flood, 31 g ai/ha, scale 0 to 100 (0 no effect, 100 complete control)
# Procedure, shortened: (§1)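 Seedlings reaching 2 leaves are flooded 3 cm deep; test material is delivered to that water, which stays at the same depth. Plants remain in a greenhouse 13–15 days and are then scored by eye versus controls from 0 to 100.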
# [2] = system: rice (Oryza sativa); experiment: Test B flooded paddy test; settings: for Plant response rating, Flood, Rice: 250 g ai/ha, flooded paddy test, visual rating on 0 to 100 scale (0 no effect, 100 complete control) after 13 to 15 days; for Plant response rating, Rice: Flood (flooded paddy test), 13 to 15 days; for Rice plant response rating: Flood, 31 g ai/ha, scale 0 to 100 (0 no effect, 100 complete control)
# Procedure, shortened: as §1
# [3] = system: barnyardgrass (Echinochloa crus-galli); experiment: Test B flooded paddy test; settings: for Plant response rating, Flood, Barnyardgrass: 250 g ai/ha, flooded paddy test, visual rating on 0 to 100 scale (0 no effect, 100 complete control) after 13 to 15 days; for Plant response rating, Barnyardgrass: Flood (flooded paddy test), 13 to 15 days; for Barnyardgrass plant response rating: Flood, 31 g ai/ha, scale 0 to 100 (0 no effect, 100 complete control)
# Procedure, shortened: as §1
# [4] = system: umbrella sedge (Cyperus difformis); experiment: Test B flooded paddy test; settings: for Plant response rating, Flood, Sedge, Umbrella: 250 g ai/ha, flooded paddy test, visual rating on 0 to 100 scale (0 no effect, 100 complete control) after 13 to 15 days; for Plant response rating, Sedge, Umbrella: Flood (flooded paddy test), 13 to 15 days; for Sedge, Umbrella plant response rating: Flood, 31 g ai/ha, scale 0 to 100 (0 no effect, 100 complete control)
# Procedure, shortened: as §1
# [5] = system: morningglory (Ipomoea spp.); experiment: Test A pre-/postemergence plant response
# Procedure, shortened: (§2)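 Injury scores (0, no effect; 100, complete control) come from visual comparison with untreated controls roughly ten days post-treatment. Test chemicals in a surfactant-containing non-phytotoxic solvent were applied as a directed soil spray preemergence and to one- to two-leaf seedlings postemergence.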
# [6] = system: pigweed (Amaranthus retroflexus); experiment: Test A pre-/postemergence plant response
# Procedure, shortened: as §2
# [7] = system: corn (Zea mays); experiment: Test A pre-/postemergence plant response
# Procedure, shortened: as §2
# [8] = system: giant foxtail (Setaria faberii); experiment: Test A pre-/postemergence plant response
# Procedure, shortened: as §2
# [9] = system: barnyardgrass (Echinochloa crus-galli); experiment: Test A pre-/postemergence plant response
# Procedure, shortened: as §2
# [10] = system: large crabgrass (Digitaria sanguinalis); experiment: Test A pre-/postemergence plant response
# Procedure, shortened: as §2
# [11] = system: velvetleaf (Abutilon theophrasti); experiment: Test A pre-/postemergence plant response; settings: for Velvetleaf plant response rating: visual injury, 0 to 100 scale (0 no effect, 100 complete control)
# Procedure, shortened: as §2
# [12] = system: wheat (Triticum aestivum); experiment: Test A pre-/postemergence plant response; settings: for Wheat plant response rating: visual injury, 0 to 100 scale (0 no effect, 100 complete control)
# Procedure, shortened: as §2
# [13] = 62 g ai/ha, scale of 0 to 100 where 0 is no effect and 100 is complete control
# [14] = 125 g ai/ha, scale 0 to 100, 0 is no effect, 100 is complete control
# [15] = Postemergence, 125 g ai/ha, 0 to 100 scale where 0 is no effect and 100 is complete control
# [16] = Postemergence, 500 g ai/ha, 0 to 100 scale, 0 = no effect, 100 = complete control, approx. ten days
# [17] = Preemergence, 125 g ai/ha, 0 to 100 scale, 0 = no effect, 100 = complete control
# [18] = Preemergence, 500 g ai/ha, visual injury, 0 to 100 scale (0 no effect, 100 complete control), approx. ten days
# [19] = Preemergence, 500 g ai/ha, 0 to 100 scale, 0 = no effect, 100 = complete control
# [20] = Postemergence, 500 g ai/ha, visual injury, 0 to 100 scale (0 no effect, 100 complete control), approx. ten days
# [21] = Postemergence, 500 g ai/ha, approx. ten days
smiles,measurement,setting,value
Cc1ccc(Cl)cc1-n1c(-c2cccc(Cl)c2)ncc(C(=O)C2=C(O)CCCC2=O)c1=O [Compound 148],"Plant response rating, Flood, Ducksalad",[1],100
same,"Plant response rating, Ducksalad",[1]; [13],90
same,"Plant response rating, Ducksalad",[1]; [14],90
same,Ducksalad plant response rating,[1],90
same,"Plant response rating, Flood, Rice",[2],50
same,"Plant response rating, Rice",[2]; [13],10
same,"Plant response rating, Rice",[2]; [14],20
same,Rice plant response rating,[2],20
same,"Plant response rating, Flood, Barnyardgrass",[3],50
same,"Plant response rating, Barnyardgrass",[3]; [13],0
same,"Plant response rating, Barnyardgrass",[3]; [14],15
same,Barnyardgrass plant response rating,[3],0
same,"Plant response rating, Flood, Sedge, Umbrella",[4],95
same,"Plant response rating, Sedge, Umbrella",[4]; [13],80
same,"Plant response rating, Sedge, Umbrella",[4]; [14],85
same,"Sedge, Umbrella plant response rating",[4],80
same,"Plant response rating, Morningglory",[5]; [15],100
same,"Plant response rating, Morningglory",[5]; [16],100
same,"Plant response rating, Morningglory",[5]; [17],0
same,"Plant response rating, Morningglory",[5]; [18],0
same,"Plant response rating, Pigweed",[6]; [15],90
same,"Plant response rating, Pigweed",[6]; [16],100
same,"Plant response rating, Pigweed",[6]; [17],0
same,"Plant response rating, Pigweed",[6]; [18],60
same,"Plant response rating, Corn",[7]; [15],0
same,"Plant response rating, Corn",[7]; [16],60
same,"Plant response rating, Corn",[7]; [17],0
same,"Plant response rating, Corn",[7]; [18],0
same,"Plant response rating, Foxtail, Giant",[8]; [15],60
same,"Plant response rating, Foxtail, Giant",[8]; [16],90
same,"Plant response rating, Foxtail, Giant",[8]; [17],0
same,"Plant response rating, Foxtail, Giant",[8]; [18],10
same,"Plant response rating, Barnyardgrass",[9]; [15],90
same,"Plant response rating, Barnyardgrass",[9]; [16],100
same,"Plant response rating, Barnyardgrass",[9]; [17],10
same,"Plant response rating, Barnyardgrass",[9]; [18],30
same,"Plant response rating, Crabgrass, Large",[10]; [15],70
same,"Plant response rating, Crabgrass, Large",[10]; [16],90
same,"Plant response rating, Crabgrass, Large",[10]; [17],0
same,"Plant response rating, Crabgrass, Large",[10]; [18],50
same,"Plant response rating, Velvetleaf",[11]; [15],100
same,"Plant response rating, Velvetleaf",[11]; [16],100
same,"Plant response rating, Velvetleaf",[11]; [17],30
same,"Plant response rating, Velvetleaf",[11]; [19],80
same,"Plant response rating, Wheat",[12]; [15],0
same,"Plant response rating, Wheat",[12]; [16],0
same,"Plant response rating, Wheat",[12]; [17],0
same,"Plant response rating, Wheat",[12]; [19],0
O=C1CCCC(O)=C1C(=O)c1cnc(-c2ccccc2)n(CCC(F)(F)F)c1=O [Compound 207],"Plant response rating, Flood, Ducksalad",[1],50
same,"Plant response rating, Ducksalad",[1]; [13],0
same,"Plant response rating, Ducksalad",[1]; [14],0
same,Ducksalad plant response rating,[1],0
same,"Plant response rating, Flood, Rice",[2],15
same,"Plant response rating, Rice",[2]; [13],0
same,"Plant response rating, Rice",[2]; [14],15
same,Rice plant response rating,[2],0
same,"Plant response rating, Flood, Barnyardgrass",[3],20
same,"Plant response rating, Barnyardgrass",[3]; [13],0
same,"Plant response rating, Barnyardgrass",[3]; [14],0
same,Barnyardgrass plant response rating,[3],0
same,"Plant response rating, Flood, Sedge, Umbrella",[4],70
same,"Plant response rating, Sedge, Umbrella",[4]; [13],40
same,"Plant response rating, Sedge, Umbrella",[4]; [14],60
same,"Sedge, Umbrella plant response rating",[4],0
same,"Plant response rating, Morningglory",[5]; [15],40
same,Morningglory plant response rating,[5]; [20],80
same,"Plant response rating, Morningglory",[5]; [17],0
same,"Plant response rating, Morningglory",[5]; [19],70
same,"Plant response rating, Pigweed",[6]; [15],100
same,Pigweed plant response rating,[6]; [20],100
same,"Plant response rating, Pigweed",[6]; [17],80
same,"Plant response rating, Pigweed",[6]; [19],100
same,"Plant response rating, Corn",[7]; [15],0
same,Corn plant response rating,[7]; [20],30
same,"Plant response rating, Corn",[7]; [17],0
same,"Plant response rating, Corn",[7]; [19],0
same,"Plant response rating, Foxtail, Giant",[8]; [15],60
same,"Foxtail, Giant plant response rating",[8]; [20],90
same,"Plant response rating, Foxtail, Giant",[8]; [17],30
same,"Plant response rating, Foxtail, Giant",[8]; [19],80
same,"Plant response rating, Barnyardgrass",[9]; [15],60
same,Barnyardgrass plant response rating,[9]; [20],90
same,"Plant response rating, Barnyardgrass",[9]; [17],10
same,"Plant response rating, Barnyardgrass",[9]; [19],50
same,"Plant response rating, Crabgrass, Large",[10]; [15],60
same,"Crabgrass, Large plant response rating",[10]; [20],90
same,"Plant response rating, Crabgrass, Large",[10]; [17],60
same,"Plant response rating, Crabgrass, Large",[10]; [19],100
same,"Plant response rating, Velvetleaf",[11]; [15],100
same,Velvetleaf plant response rating,[11]; [21],100
same,"Plant response rating, Velvetleaf",[11]; [17],70
same,"Plant response rating, Velvetleaf",[11]; [19],100
same,"Plant response rating, Wheat",[12]; [15],0
same,Wheat plant response rating,[12]; [21],0
same,"Plant response rating, Wheat",[12]; [17],0
same,"Plant response rating, Wheat",[12]; [19],0
Cc1ccccc1-n1c(-c2cccc(Br)c2)ncc(C(=O)C2=C(O)CCCC2=O)c1=O [Compound 209],"Plant response rating, Flood, Ducksalad",[1],85
same,"Plant response rating, Ducksalad",[1]; [13],50
same,"Plant response rating, Ducksalad",[1]; [14],85
same,Ducksalad plant response rating,[1],0
same,"Plant response rating, Flood, Rice",[2],20
same,"Plant response rating, Rice",[2]; [13],0
same,"Plant response rating, Rice",[2]; [14],10
same,Rice plant response rating,[2],0
same,"Plant response rating, Flood, Barnyardgrass",[3],20
same,"Plant response rating, Barnyardgrass",[3]; [13],0
same,"Plant response rating, Barnyardgrass",[3]; [14],0
same,Barnyardgrass plant response rating,[3],0
same,"Plant response rating, Flood, Sedge, Umbrella",[4],80
same,"Plant response rating, Sedge, Umbrella",[4]; [13],50
same,"Plant response rating, Sedge, Umbrella",[4]; [14],70
same,"Sedge, Umbrella plant response rating",[4],0
same,"Plant response rating, Morningglory",[5]; [15],30
same,Morningglory plant response rating,[5]; [20],100
same,"Plant response rating, Morningglory",[5]; [17],0
same,"Plant response rating, Morningglory",[5]; [19],30
same,"Plant response rating, Pigweed",[6]; [15],60
same,Pigweed plant response rating,[6]; [20],100
same,"Plant response rating, Pigweed",[6]; [17],0
same,"Plant response rating, Pigweed",[6]; [19],70
same,"Plant response rating, Corn",[7]; [15],0
same,Corn plant response rating,[7]; [20],40
same,"Plant response rating, Corn",[7]; [17],0
same,"Plant response rating, Corn",[7]; [19],20
same,"Plant response rating, Foxtail, Giant",[8]; [15],60
same,"Foxtail, Giant plant response rating",[8]; [20],100
same,"Plant response rating, Foxtail, Giant",[8]; [17],10
same,"Plant response rating, Foxtail, Giant",[8]; [19],60
same,"Plant response rating, Barnyardgrass",[9]; [15],80
same,Barnyardgrass plant response rating,[9]; [20],100
same,"Plant response rating, Barnyardgrass",[9]; [17],0
same,"Plant response rating, Barnyardgrass",[9]; [19],50
same,"Plant response rating, Crabgrass, Large",[10]; [15],50
same,"Crabgrass, Large plant response rating",[10]; [20],100
same,"Plant response rating, Crabgrass, Large",[10]; [17],20
same,"Plant response rating, Crabgrass, Large",[10]; [19],70
same,"Plant response rating, Velvetleaf",[11]; [15],100
same,Velvetleaf plant response rating,[11]; [21],100
same,"Plant response rating, Velvetleaf",[11]; [17],60
same,"Plant response rating, Velvetleaf",[11]; [19],100
same,"Plant response rating, Wheat",[12]; [15],0
same,Wheat plant response rating,[12]; [21],0
same,"Plant response rating, Wheat",[12]; [17],0
same,"Plant response rating, Wheat",[12]; [19],0
